Measurements: the CheMixHub ionic liquid set
“And” between values parts separate entries of the source, which are not always exact repeats. Equal values may be shown once.

Assay: xn = mol fraction of the nth substance listed

OC[C@H]1O[C@@H](O[C@H]2[C@H](O)[C@@H](O)[C@@H](O)O[C@@H]2CO)[C@H](O)[C@@H](O)[C@H]1O + CCCC[N+](C)(CCCC)CCCC.[Cl-] + O
viscosity, 100 kPa
Settings | 293.15 K | 298.15 K | 303.15 K | 308.15 K | 313.15 K
x1 = 0.0003513, x2 = 0 | 1.018 mPa·s | 0.904 mPa·s | 0.804 mPa·s | 0.725 mPa·s | 0.658 mPa·s
x1 = 0.0003543, x2 = 0.000702 | 1.043 mPa·s | 0.929 mPa·s | 0.828 mPa·s | 0.745 mPa·s | 0.679 mPa·s
x1 = 0.0003546, x2 = 0.0003601 | 1.027 mPa·s | 0.917 mPa·s | 0.819 mPa·s | 0.735 mPa·s | 0.667 mPa·s
x1 = 0.0003558, x2 = 0.001062 | 1.057 mPa·s | 0.948 mPa·s | 0.843 mPa·s | 0.757 mPa·s | 0.696 mPa·s
x1 = 0.0003573, x2 = 0.001421 | 1.069 mPa·s | 0.961 mPa·s | 0.856 mPa·s | 0.77 mPa·s | 0.706 mPa·s
x1 = 0.0007059, x2 = 0 | 1.038 mPa·s | 0.919 mPa·s | 0.812 mPa·s | 0.731 mPa·s | 0.662 mPa·s
x1 = 0.000709, x2 = 0.00036 | 1.049 mPa·s | 0.937 mPa·s | 0.834 mPa·s | 0.747 mPa·s | 0.673 mPa·s
x1 = 0.0007119, x2 = 0.0007018 | 1.067 mPa·s | 0.948 mPa·s | 0.843 mPa·s | 0.758 mPa·s | 0.689 mPa·s
x1 = 0.0007149, x2 = 0.001061 | 1.081 mPa·s | 0.969 mPa·s | 0.86 mPa·s | 0.771 mPa·s | 0.708 mPa·s
x1 = 0.000718, x2 = 0.001421 | 1.094 mPa·s | 0.984 mPa·s | 0.876 mPa·s | 0.785 mPa·s | 0.72 mPa·s
x1 = 0.001058, x2 = 0 | 1.059 mPa·s | 0.936 mPa·s | 0.827 mPa·s | 0.741 mPa·s | 0.671 mPa·s
x1 = 0.001063, x2 = 0.0003599 | 1.07 mPa·s | 0.952 mPa·s | 0.848 mPa·s | 0.758 mPa·s | 0.681 mPa·s
x1 = 0.001067, x2 = 0.0007015 | 1.088 mPa·s | 0.966 mPa·s | 0.857 mPa·s | 0.77 mPa·s | 0.698 mPa·s
x1 = 0.001072, x2 = 0.001061 | 1.106 mPa·s | 0.989 mPa·s | 0.877 mPa·s | 0.785 mPa·s | 0.72 mPa·s
x1 = 0.001077, x2 = 0.00142 | 1.118 mPa·s | 1.003 mPa·s | 0.891 mPa·s | 0.799 mPa·s | 0.733 mPa·s
x1 = 0.001413, x2 = 0 | 1.079 mPa·s | 0.955 mPa·s | 0.843 mPa·s | 0.752 mPa·s | 0.68 mPa·s
x1 = 0.001419, x2 = 0.0003598 | 1.093 mPa·s | 0.971 mPa·s | 0.86 mPa·s | 0.77 mPa·s | 0.694 mPa·s
x1 = 0.001425, x2 = 0.0007013 | 1.11 mPa·s | 0.986 mPa·s | 0.872 mPa·s | 0.784 mPa·s | 0.709 mPa·s
x1 = 0.001431, x2 = 0.001061 | 1.127 mPa·s | 1.006 mPa·s | 0.893 mPa·s | 0.8 mPa·s | 0.734 mPa·s
x1 = 0.001437, x2 = 0.00142 | – | 1.14 mPa·s | 1.02 mPa·s | 0.909 mPa·s | 0.747 mPa·s and 0.816 mPa·s
x1 = 0.001765, x2 = 0 | 1.097 mPa·s | 0.971 mPa·s | 0.858 mPa·s | 0.764 mPa·s | 0.689 mPa·s
x1 = 0.001774, x2 = 0.0003596 | 1.118 mPa·s | 0.987 mPa·s | 0.879 mPa·s | 0.783 mPa·s | 0.705 mPa·s
x1 = 0.00178, x2 = 0.000701 | 1.133 mPa·s | 1.003 mPa·s | 0.889 mPa·s | 0.797 mPa·s | 0.719 mPa·s
x1 = 0.001787, x2 = 0.00106 | 1.15 mPa·s | 1.024 mPa·s | 0.909 mPa·s | 0.814 mPa·s | 0.745 mPa·s
x1 = 0.001795, x2 = 0.001419 | – | 1.164 mPa·s | 1.038 mPa·s | 0.923 mPa·s | 0.76 mPa·s and 0.829 mPa·s

CCOS(=O)(=O)[O-].CC[n+]1ccn(C)c1 + CS(C)=O
101 kPa, x1 = 0.3333
Settings | viscosity [mPa·s]
288.15 K | 3.92
293.15 K | 3.53
313.15 K | 2.26
348.15 K | 1.27

CN(C)CCO + CCCC[n+]1ccn(C)c1.F[P-](F)(F)(F)(F)F
101 kPa
Settings | electrical conductivity [S/m] | viscosity [mPa·s]
288.15 K, x1 = 0.3182 | 0.1534 | 120
288.15 K, x1 = 0.3764 | 0.1645 | –
288.15 K, x1 = 0.5166 | 0.1918 | 63
288.15 K, x1 = 0.709 | 0.211 | 29
288.15 K, x1 = 0.8063 | 0.1998 | 18
293.15 K, x1 = 0.2143 | 0.187 | 117
293.15 K, x1 = 0.4405 | – | 61
293.15 K, x1 = 0.4637 | 0.237 | –
293.15 K, x1 = 0.5166 | 0.25 | 48
293.15 K, x1 = 0.8063 | 0.245 | 14.6
298.15 K, x1 = 0.1221 | 0.211 | 117
298.15 K, x1 = 0.4637 | 0.308 | –
298.15 K, x1 = 0.9128 | 0.1874 | 6.7
298.15 K, x1 = 1 | – | 3.8
303.15 K, x1 = 0.3764 | 0.369 | –
303.15 K, x1 = 0.4405 | – | 36
303.15 K, x1 = 0.8063 | 0.355 | 9.7
308.15 K, x1 = 0.4405 | – | 28
308.15 K, x1 = 0.4637 | 0.483 | –
313.15 K, x1 = 0.605 | 0.611 | 14
318.15 K, x1 = 0.3764 | 0.679 | –
323.15 K, x1 = 0.3764 | 0.792 | –
323.15 K, x1 = 0.5166 | 0.849 | 12.7
323.15 K, x1 = 1 | – | 2.04

O=C(O)CCl + CCC[N+](CCC)(CCC)CCC.[Br-]
100 kPa, x2 = 0.333
Settings | electrical conductivity [S/m] | viscosity [mPa·s]
308.15 K | 0.136 | 61.13
328.15 K | 0.345 | 21.57

CCCC[n+]1ccn(C)c1.O=[N+]([O-])[O-] + CCCC(C)O
100 kPa
Settings | viscosity [mPa·s]
293.15 K, x1 = 0.8501 | 83
303.15 K, x1 = 0.3499 | 6.6
318.15 K, x1 = 0.4399 | 5.9
323.15 K, x1 = 0.5604 | 7.1
323.15 K, x1 = 0.6505 | 9.7

CCCC[n+]1ccn(C)c1.O=[N+]([O-])[O-] + O + NCCO
100 kPa
Settings | viscosity [mPa·s]
303 K, x1 = 0.2218, x2 = 0.4128 | 15.07
303 K, x1 = 0.2959, x2 = 0.2542 | 17.98
308 K, x1 = 0.2218, x2 = 0.4128 | 12.54
308 K, x1 = 0.2959, x2 = 0.2542 | 14.93
313 K, x1 = 0.01284, x2 = 0.8603 | 2.342
313 K, x1 = 0.02953, x2 = 0.8245 | 2.9
313 K, x1 = 0.05213, x2 = 0.7761 | 3.701
313 K, x1 = 0.08442, x2 = 0.707 | 4.94
313 K, x1 = 0.1343, x2 = 0.6001 | 6.9
313 K, x1 = 0.2218, x2 = 0.4128 | 10.58
313 K, x1 = 0.2959, x2 = 0.2542 | 12.55
313 K, x1 = 0.4146, x2 = 0 | 17.77
318 K, x1 = 0.2218, x2 = 0.4128 | 9.05
318 K, x1 = 0.2959, x2 = 0.2542 | 10.69
323 K, x1 = 0.2218, x2 = 0.4128 | 7.81
323 K, x1 = 0.2959, x2 = 0.2542 | 9.2

CCCC[n+]1ccn(C)c1.O=[N+]([O-])[O-] + CCCCCCCO
viscosity [mPa·s], 100 kPa
Settings | 293.15 K | 303.15 K | 313.15 K | 323.15 K
x1 = 0.0824 | 7.76 | 5.5 | 3.98 | 2.87
x1 = 0.1625 | 8.67 | 6.03 | 4.34 | 3.03
x1 = 0.2317 | 9.68 | 6.61 | 4.7 | 3.23
x1 = 0.3446 | 11.46 | 7.53 | 5.37 | 3.67
x1 = 0.4317 | 13.2 | 8.53 | 5.96 | 4.12
x1 = 0.5762 | 18.7 | 11.56 | 7.74 | 5.01
x1 = 0.6416 | 24.3 | 14.4 | 9.06 | 5.69
x1 = 0.7334 | 41.3 | 22.6 | 14 | 8.49
x1 = 0.8418 | 82.4 | 43 | 26.4 | 15.8
x1 = 0.9327 | 146 | 77.8 | 47.8 | 28.1
x1 = 1 | 224 | 125 | 75.1 | 45.2
